{"source": "paper PMC8224775", "about": "“Five Tetramic Acid Derivatives Isolated from the Iranian Fungus Colpoma quercinum CCTU A372” (Biomolecules, 2021)", "system": "mouse fibroblast L-929", "experiment": "5-day MTT cytotoxicity assay", "type": "cell-based", "settings": "L-929, 5-day MTT assay", "description": "Cytotoxicity of compounds 1‒5 was initially determined against two cancer cell lines (mouse fibroblasts L-929 and human endocervical adenocarcinoma KB-3.1) by using a 5-day MTT assay according to an established procedure.\nIn 96-well flat-bottom microtiter plates, cell lines with serial dilution of the test compounds (final range: 37 to 0.6 × 10^−3 µg/mL) were incubated for five days. After five days, the cells were dyed using 3-(4,5-dimethyl-2-thiazolyl)-2,5-diphenyl-2H-tetrazolium bromide (MTT), which is only converted to its purple formazan derivative by living cells. The half-maximum inhibitory concentration (IC50 in µM) was calculated via the colorimetric method in a microplate reader using absorption at 595 nm. In addition, when an inhibition with an IC50 < 50 µM was observed, other cell lines were subjected to the test compounds to evaluate their further cytotoxicity: PC-3 (human prostate adenocarcinoma), SK-OV-3 (human ovary adenocarcinoma), MCF-7 (human breast adenocarcinoma), A-431 (human squamous carcinoma), and A549 (human lung carcinoma). A detailed procedure, including the colorimetric method to determine the cell viability, can be found in the SI.\nProtocol: Cytotoxicity Assay\nThe assay was co nducted in 9 6-well flat -botto m microtiter plates using the parameters summarised in T able S2 and as described in [S2]. Cell l ines L-929 and KB-3.1 were incubated at 37 °C under 10 % CO2 in Gibco™ DMEM medium (T her mo Fisher Scientific, Waltham, M A, USA) supplemented with 10 % FBS. A microtiter plate was filled wit h 120 μ L o f this suspensio n (50,000/mL) in each well. Seperatel y, a nother microti ter plate wa s filled wit h 100 μL of gro wth medium in each well. Then, 50 μ L of the test compound solutions (1 mg/mL) were given to wells of the first column in two replicates (one compound per row). Cells without additives and MeOH were used as nega tive controls. Starting from the first column, 50 μ L of the solutions were gradually transferred to the next column, the contents thoroughly mixed, and 50 μL transferred to the following column. This created a serial dilution of the test compounds ranging from 333 μ g/mL to 1.9×10-3 μg/ mL. T he re mai ni ng 50 μ L after column twelve were discarded. From this microtiter plate, 60 μ L of the solutions fro m 111 μ g/mL to 1.9×10-3 μg/mL we r e give n to t he firs t p late co ntai ni ng 1 2 0 μ L of the cell suspensions (i.e. the highest co ncentration 333 μ g/ mL wa s no t used). T his resul ted in fi nal compo und concentratio ns rangi ng fro m 37 μ g/mL to 0.6×10-3 μg/ mL. After 5 days o f incubatio n under the aforementioned incubatio n conditions, the half maximu m inhibitory co ncentrations (IC50) were deter mined using a colorimetric tetrazolium d ye MT T assa y [S3]. For this, 20 μ L of a 5 mg/mL solution of 3-(4,5-dimethyl-2 -thiazolyl) -2,5-diphenyl-2H-tetrazolium br omide (MTT) were added to each well and incubated for two hours at 37 °C. T hen, the microtiter plate was ce ntrifuged (3,000 rpm, 5 min) and the supernatant removed by holding the plate upside-down and gentle shaking. Afterwards, the wells were washed using 100 μ L of phosphate buffered saline (PBS). T he plate was a gain ce ntrifuged a nd the supernata nt re mo ved as described before.\nT hen, 1 0 0 μ L of an isopropanol:HCl solution (1L isopropanol+4 mL HCl 37 % w/v) were added to the wells. After incubating for 10 min at ambient temperature, the absorption of the wells at 595 nm was measured with an Infinite® 200 Pro microplate reader (TECAN, Männedorf, Schweiz). The absorption values of the cells without additives were averaged and set to 100 % cell viability. Then, the means of absorption of the two compound replicates were set in relation to the blank media. T hese percentage values were plotted against the concentratio n range (37 μ g/mL to 0.6×10−3 μg/ mL). T he IC50 value was r ead fro m the plot (in μ g/ mL) a nd the uni ts conversed […]\nto μM. […]", "note": "Where two headings read alike, the source gives them in different places.", "data": [{"smiles": "CC1=CC2CC(C)CCC2C2(C)C(=O)OC(C(=O)O)C(C)C12", "note": "(centres unmarked) [compound 3, Colposetin C]", "values": [{"measurement": "IC50", "result": "not active"}]}, {"smiles": "CC(=O)OC(C(=O)O)C(C)C1C(C)=CC2CC(C)CCC2C1(C)C(O)=C1C(=O)C(C)N(C)C1=O", "note": "(centres unmarked) [compound 1, Colposetin A]", "values": [{"measurement": "IC50", "result": "not active"}]}, {"smiles": "CC(C=CCC(C)CCC=C(C)C(=O)C1=C(O)C(C)N(C)C1=O)=CC(C)C(O)C(=O)O", "note": "(centres unmarked) [compound 4, Colpomenoic acid A]", "values": [{"measurement": "IC50", "result": "not active"}]}, {"smiles": "CCC(C(=O)O)C1C(C)=CC2CC(C)CCC2C1(C)C(O)=C1C(=O)C(C)N(C)C1=O", "note": "(centres unmarked) [compound 2, Colposetin B]", "values": [{"measurement": "IC50", "setting": "Mus musculus, L929, 120 h, read-out: IC50", "result": 57.5, "unit": "µM"}]}, {"smiles": "CC(C=CCC(C)C=CC=C(C)C(=O)C1=C(O)C(C)N(C)C1=O)=CC(C)C(O)C(=O)O", "note": "(centres unmarked) [compound 5, Colpomenoic acid B]", "values": [{"measurement": "IC50", "result": "not active"}]}]}
